# ChEMBL document CHEMBL5338738, “Discovery of Novel Sesquiterpene Lactone Derivatives as Potent PKM2 Activators for the Treatment of Ulcerative Colitis” (J Med Chem, 2023)
# Active and inactive are the calls of the source. The rule behind the calls is not given here.
# Assays:
# [1] = system: T-cell; test: Immunomodulatory activity in C57BL/6 mouse mesenteric lymph node T cells assessed as inhibition of concanavalin A stimulated T-cell proliferation incubated for 68 hrs by CCK-8 assay; format: functional, cell-based; conditions: C57BL/6, T-cell
# [2] = molecular target: T1, Pyruvate kinase PKM (Homo sapiens, UniProt P14618); test: Activation of PKM2 (unknown origin) at 3 uM incubated for 30 mins relative to control
# Target sequence in this assay (P14618 2-531 limits assumed): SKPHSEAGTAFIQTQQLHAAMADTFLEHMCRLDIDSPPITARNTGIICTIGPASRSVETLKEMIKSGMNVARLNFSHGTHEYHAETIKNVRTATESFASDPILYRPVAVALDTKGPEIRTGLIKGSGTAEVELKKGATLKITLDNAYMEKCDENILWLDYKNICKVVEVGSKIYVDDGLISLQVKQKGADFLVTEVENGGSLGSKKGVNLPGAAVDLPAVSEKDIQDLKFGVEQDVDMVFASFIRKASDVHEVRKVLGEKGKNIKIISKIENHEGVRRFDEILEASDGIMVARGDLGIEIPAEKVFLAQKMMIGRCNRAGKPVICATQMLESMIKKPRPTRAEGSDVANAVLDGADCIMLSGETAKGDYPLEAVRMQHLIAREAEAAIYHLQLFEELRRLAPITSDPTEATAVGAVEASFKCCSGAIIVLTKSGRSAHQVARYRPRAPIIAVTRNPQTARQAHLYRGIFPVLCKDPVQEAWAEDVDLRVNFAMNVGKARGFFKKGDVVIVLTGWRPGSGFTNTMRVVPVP
# [3] = molecular target: T1, Pyruvate kinase PKM; test: Activation of PKM2 (unknown origin) incubated for 30 mins
# Target sequence in this assay (P14618 whole entry): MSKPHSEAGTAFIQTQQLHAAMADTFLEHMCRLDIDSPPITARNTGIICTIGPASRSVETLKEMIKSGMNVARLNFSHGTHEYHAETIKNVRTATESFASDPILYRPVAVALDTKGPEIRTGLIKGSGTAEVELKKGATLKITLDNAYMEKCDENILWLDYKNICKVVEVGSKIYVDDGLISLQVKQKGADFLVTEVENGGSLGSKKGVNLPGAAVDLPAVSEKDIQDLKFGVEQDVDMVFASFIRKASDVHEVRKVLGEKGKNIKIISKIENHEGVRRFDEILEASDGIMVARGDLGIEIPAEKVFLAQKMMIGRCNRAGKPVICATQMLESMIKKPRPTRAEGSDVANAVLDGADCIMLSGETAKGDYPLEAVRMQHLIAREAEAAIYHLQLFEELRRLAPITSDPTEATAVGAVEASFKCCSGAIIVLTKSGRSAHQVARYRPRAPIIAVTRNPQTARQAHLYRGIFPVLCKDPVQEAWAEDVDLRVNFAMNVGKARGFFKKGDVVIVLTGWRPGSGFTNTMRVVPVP
SMILES,IC50 [1] [nM],Activity [2],EC50 [3] [nM]
C=C1C(=O)O[C@@H]2/C=C(\C)CC[C@H]3O[C@@]3(C)CC[C@@H]12,2630,–,–
C/C1=C\[C@H]2OC(=O)[C@@H](C)[C@@H]2CC/C(C)=C/CC1 [DIHYDRO COSTUNOLIDE],15000,inactive,–
C=C1C(=O)O[C@@H]2/C=C(\C)CC/C=C(/C(=O)OC)CC[C@@H]12,850,–,–
C=C1C(=O)O[C@@H]2/C=C(\C)CC[C@H]3C(F)(F)[C@@]3(C)CC[C@@H]12,1230,–,–
C=C1C(=O)O[C@H]2[C@H]1CC[C@@H](C)CCC[C@@]1(C)O[C@@H]21,1420,–,–
C=C1C(=O)O[C@@H]2/C=C(\C)CC/C=C(/COC(=O)[C@@H](NC(=O)[C@@H](N)[C@@H](C)CC)C(C)C)CC[C@@H]12,1010,–,–
C/C1=C\[C@H]2OC(=O)/C(=C\c3ccccc3)[C@@H]2CC/C(C)=C/CC1,16100,inactive,–
C=C1CC[C@@H](O)[C@]2(C)CC[C@H]3C(=C)C(=O)O[C@@H]3[C@@H]12 [REYNOSIN],6200,inactive,–
C=C1C(=O)O[C@@H]2/C=C(\C)CC/C=C(/CF)CC[C@@H]12,1520,–,–
C=C1C(=O)O[C@@H]2/C=C(\C)CC/C=C(/C(F)F)CC[C@@H]12,1210,–,–
C=C1C(=O)O[C@@H]2/C=C(\C)CC/C=C(\C)CC[C@@H]12 [COSTUNOLIDE],2570,–,1510
C=C1C(=O)O[C@@H]2C3=C(C)CC[C@@H](O)[C@]3(C)CC[C@@H]12,6170,inactive,–
C=C1C(=O)O[C@@H]2/C=C(\C)CC/C=C(/CCl)CC[C@@H]12,15200,inactive,–
C=C1C(=O)O[C@H]2[C@H]1CC[C@]1(C)O[C@@H]1CC[C@@]1(C)O[C@@H]21,10600,inactive,–
C=C1C(=O)O[C@@H]2/C=C(\C)CC/C=C(/CBr)CC[C@@H]12,11800,inactive,–
C=C1C(=O)O[C@@H]2[C@H]3C(C)=CC[C@@H](O)[C@]3(C)CC[C@@H]12 [SANTAMARIN],5560,inactive,–
C=C1C(=O)O[C@@H]2/C=C(\C)CCC[C@H](C)CC[C@@H]12,2890,–,–
C=C1C(=O)O[C@@H]2/C=C(\C)CC/C=C(/C(=O)O)CC[C@@H]12,10200,inactive,–
C=C1C(=O)O[C@@H]2C[C@@H](C)CC[C@H]3O[C@@]3(C)CC[C@@H]12,1970,–,–
C=C1C(=O)O[C@@H]2/C=C(\C)CC/C=C(/COC(=O)[C@@H](N)C(C)C)CC[C@@H]12,880,–,–
C=C1C(=O)O[C@@H]2/C=C(\C)CC/C=C(/C=O)CC[C@@H]12,25900,inactive,–
C=C1C(=O)O[C@@H]2/C=C(\C)CC/C=C(/C(=O)OCC)CC[C@@H]12,1030,–,–
C=C1C(=O)O[C@@H]2/C=C(\C)CC/C=C(/CO)CC[C@@H]12,720,–,–
